The assay deals with MX-1 breast xenograft, intrarenal, nude mice, tumor weight. Description: NCI In Vivo Anticancer Drug Screen. Data for tumor model Human Mammary Carcinoma MX-1 Xenograft (intrarenal inoculation) in NU/NU BALB/C (nude) mice. The following applies: endpoint: mean tumor weight change, higher = larger tumour. The gist of the method:
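Antitumor activity is expressed as a T/C ratio. The treated group's tumor size or survival is compared against the vehicle-treated control group in mice bearing transplanted tumors.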

Where [1] appears, read: dose: 300.0 mg/kg/injection, schedule: Q04DX003 (sc), vehicle: saline with Tween-80.
The mark [2] stands for this setting: dose: 600.0 mg/kg/injection, schedule: Q04DX003 (sc), vehicle: saline with Tween-80.
[3] abbreviates: dose: 1200.0 mg/kg/injection, schedule: Q04DX003 (sc), vehicle: saline with Tween-80.
Setting [4] is: dose: 50.0 mg/kg/injection, schedule: Q04DX003 (ip), vehicle: saline with Tween-80.
Where [5] appears, read: dose: 100.0 mg/kg/injection, schedule: Q04DX003 (ip), vehicle: saline with Tween-80.

Where “and” joins values, the source holds several entries; their conditions need not be identical. Equal values may be shown once. Records with an inconclusive call do not appear.

This note sets out measurements from PubChem BioAssay AID298 (DTP/NCI, 2004).

`C[C@]12CC[C@@H]3c4ccc(OC(=O)Cc5ccc(N(CCCl)CCCl)cc5)cc4CC[C@H]3[C@@H]1CC[C@@H]2OC(=O)Cc1ccc(N(CCCl)CCCl)cc1`: the T/C was 98 % of control under setting [1], 24 % of control under setting [2] and 7 % of control under setting [3].

Take `NC(=S)c1ncn(C2OC(COC=O)C(OC=O)C2OC=O)c1NC=O` (stereo not drawn): the T/C runs as follows: under setting [4], 105 % of control; (dose: 100.0 mg/kg/injection, schedule: Q04DX003 (ip), vehicle: Klucel (hydroxypropylcellulose) (HPC)) 47 % of control; under setting [5], 103 % of control; (dose: 200.0 mg/kg/injection, schedule: Q04DX003 (ip), vehicle: Klucel (hydroxypropylcellulose) (HPC)) 31 % of control; (dose: 200.0 mg/kg/injection, schedule: Q04DX003 (ip), vehicle: saline with Tween-80) 65 % of control; (dose: 400.0 mg/kg/injection, schedule: Q04DX003 (ip), vehicle: Klucel (hydroxypropylcellulose) (HPC)) 48 % of control. Besides, the T/C (dose: 400.0 mg/kg/injection, schedule: Q04DX003 (ip), vehicle: saline with Tween-80) was 9 % of control.

On to `COC1(OC)C2C=CC1CC2`, for which the T/C is 116 % of control (dose: 150.0 mg/kg/injection, schedule: Q04DX003 (sc), vehicle: saline with Tween-80); 104 % of control under setting [1]; 121 % of control under setting [2]; 111 % of control under setting [3].

For `Cc1ccc(/C=C/C(=O)/C=C/c2ccc(C)o2)o1`, the T/C is 94 % of control (dose: 100.0 mg/kg/injection, schedule: Q04DX003 (ip), vehicle: DMSO); 112 % of control (dose: 200.0 mg/kg/injection, schedule: Q04DX003 (ip), vehicle: DMSO); 107 % of control (dose: 800.0 mg/kg/injection, schedule: Q04DX003 (ip), vehicle: DMSO).

Consider `O=C(Nc1ccccc1)c1c(O)[nH]c(=S)[nH]c1=O`, for which the T/C is 85 % of control under setting [4]; 98 % of control (dose: 75.0 mg/kg/injection, schedule: Q04DX003 (ip), vehicle: saline with Tween-80); 108 % of control under setting [5].

As for `Cn1nnc2c(C(N)=O)ncn2c1=O`, the T/C (dose: 75.0 mg/kg/injection, schedule: Q04DX003 (ip), vehicle: suspension in saline) is 68 % of control; the T/C (dose: 150.0 mg/kg/injection, schedule: Q04DX003 (ip), vehicle: saline) is 24 % of control; the T/C (dose: 150.0 mg/kg/injection, schedule: Q04DX003 (ip), vehicle: suspension in saline) was 15 % of control; the T/C (dose: 300.0 mg/kg/injection, schedule: Q04DX003 (ip), vehicle: saline) was -68 % of control; the T/C (dose: 300.0 mg/kg/injection, schedule: Q04DX003 (ip), vehicle: suspension in saline) is -100 % of control.

Consider `O=P(O)(NCCCl)NCCCl`, for which the T/C (dose: 37.5 mg/kg/injection, schedule: Q04DX003 (sc), vehicle: saline) was 31 % of control.

As for `Nc1nc([Se]c2nc(N)nc3c2ncn3C2OC(CO)C(O)C2O)c2ncn(C3OC(CO)C(O)C3O)c2n1` (stereo not drawn), the T/C was 77 % of control (dose: 100.0 mg/kg/injection, schedule: Q04DX003 (ip), vehicle: distilled water + Tween-80); 78 % of control (dose: 200.0 mg/kg/injection, schedule: Q04DX003 (ip), vehicle: distilled water + Tween-80); 34 % of control (dose: 400.0 mg/kg/injection, schedule: Q04DX003 (ip), vehicle: distilled water + Tween-80).

Regarding `COc1cc(NCc2ccc3nc(N)nc(N)c3c2C)cc(OC)c1OC`, the T/C is 96 % of control and 101 % of control (dose: 15.0 mg/kg/injection, schedule: Q04DX003 (ip), vehicle: Klucel (hydroxypropylcellulose) (HPC)); 81 % of control and 95 % of control (dose: 30.0 mg/kg/injection, schedule: Q04DX003 (ip), vehicle: Klucel (hydroxypropylcellulose) (HPC)); 56 % of control and 71 % of control (dose: 120.0 mg/kg/injection, schedule: Q04DX003 (ip), vehicle: Klucel (hydroxypropylcellulose) (HPC)).

Take `NCCCNCCCCNC(=O)C(O)NC(=O)CC(O)CCCCN=C(N)N` (stereo not drawn): the T/C is 100 % of control (dose: 12.5 mg/kg/injection, schedule: Q04DX003 (ip), vehicle: saline); 93 % of control (dose: 25.0 mg/kg/injection, schedule: Q04DX003 (ip), vehicle: saline); 29 % of control and 44 % of control (dose: 50.0 mg/kg/injection, schedule: Q04DX003 (ip), vehicle: saline); 53 % of control and 56 % of control (dose: 100.0 mg/kg/injection, schedule: Q04DX003 (ip), vehicle: saline).

Turning to `CC(=O)O[C@H]1C(=O)[C@@]2(C)C(C(OC(=O)c3ccccc3)[C@]3(O)C[C@H](OC(=O)C(OC(=O)CCCC(=O)NCCCN(C)C)C(NC(=O)c4ccccc4)c4ccccc4)C(C)=C1C3(C)C)C1(OC(C)=O)COC1C[C@@H]2O` (stereo partly drawn), the T/C was 22 % of control (dose: 2.5 mg/kg/injection, schedule: Q01DX009 (ip), vehicle: water); 1 % of control (dose: 5.0 mg/kg/injection, schedule: Q01DX009 (ip), vehicle: water); 1 % of control (dose: 10.0 mg/kg/injection, schedule: Q01DX009 (ip), vehicle: water); -100 % of control (dose: 20.0 mg/kg/injection, schedule: Q01DX009 (ip), vehicle: water); -100 % of control (dose: 40.0 mg/kg/injection, schedule: Q01DX009 (ip), vehicle: water).

On to `COC(=O)C12OCC34C(CC5C(C)C6=CC(=O)OC6=CC5(C)C3C(O)C1O)OC(=O)C(O)C24` (stereo not drawn), for which the T/C by setting is: (dose: 0.5 mg/kg/injection, schedule: Q04DX003 (ip), vehicle: Klucel (hydroxypropylcellulose) (HPC)) 75 % of control; (dose: 1.0 mg/kg/injection, schedule: Q04DX003 (ip), vehicle: Klucel (hydroxypropylcellulose) (HPC)) 77 % of control; (dose: 2.0 mg/kg/injection, schedule: Q04DX003 (ip), vehicle: Klucel (hydroxypropylcellulose) (HPC)) 69 % of control; (dose: 4.0 mg/kg/injection, schedule: Q04DX003 (ip), vehicle: Klucel (hydroxypropylcellulose) (HPC)) 45 % of control.

Consider `CCCCCCCC1C(=O)OC2CC3C(C)=CC(=O)C(O)C3(C)C3C4(O)OCC23C1C(C)C4O` (stereo not drawn), for which the T/C (dose: 10.0 mg/kg/injection, schedule: Q04DX003 (ip), vehicle: Klucel (hydroxypropylcellulose) (HPC)) is 89 % of control; the T/C (dose: 20.0 mg/kg/injection, schedule: Q04DX003 (ip), vehicle: Klucel (hydroxypropylcellulose) (HPC)) was 107 % of control; the T/C (dose: 40.0 mg/kg/injection, schedule: Q04DX003 (ip), vehicle: Klucel (hydroxypropylcellulose) (HPC)) is 53 % of control.

On to `Nc1ccc(S(=O)(=O)Nc2cnc3c(Cl)cccc3n2)cc1`, for which the T/C is 103 % of control (dose: 150.0 mg/kg/injection, schedule: Q04DX003 (ip), vehicle: DMSO); 49 % of control (dose: 300.0 mg/kg/injection, schedule: Q04DX003 (ip), vehicle: DMSO); 75 % of control (dose: 600.0 mg/kg/injection, schedule: Q04DX003 (ip), vehicle: DMSO).

Regarding `CC(=O)O[C@H]1C(=O)[C@@]2(C)C(C(OC(=O)c3ccccc3)[C@]3(O)C[C@H](OC(=O)C(O)C(NC(=O)c4ccccc4)c4ccccc4)C(C)=C1C3(C)C)C1(OC(C)=O)COC1C[C@@H]2OC(=O)CN(C)C` (stereo partly drawn) (tested in a mixture with another compound), the T/C is 34 % of control (dose: 4.13 mg/kg/injection, schedule: Q01DX009 (ip), vehicle: water); 23 % of control (dose: 8.25 mg/kg/injection, schedule: Q01DX009 (ip), vehicle: water); -93 % of control (dose: 16.5 mg/kg/injection, schedule: Q01DX009 (ip), vehicle: water); -100 % of control (dose: 33.0 mg/kg/injection, schedule: Q01DX009 (ip), vehicle: water).

For `N#Cc1ccc(NN=O)nc1`, the T/C is 95 % of control (dose: 12.5 mg/kg/injection, schedule: Q04DX003 (ip), vehicle: other); 38 % of control and 41 % of control (dose: 12.5 mg/kg/injection, schedule: Q04DX003 (ip), vehicle: water); 20 % of control (dose: 25.0 mg/kg/injection, schedule: Q04DX003 (ip), vehicle: other); 7 % of control and 9 % of control (dose: 25.0 mg/kg/injection, schedule: Q04DX003 (ip), vehicle: water); 4 % of control (dose: 50.0 mg/kg/injection, schedule: Q04DX003 (ip), vehicle: other); 1 % of control and 12 % of control (dose: 50.0 mg/kg/injection, schedule: Q04DX003 (ip), vehicle: water). The T/C reads like this: (dose: 100.0 mg/kg/injection, schedule: Q04DX003 (ip), vehicle: other) -92 % of control; (dose: 100.0 mg/kg/injection, schedule: Q04DX003 (ip), vehicle: water) -86 % of control.
